Measured values reported in patent publication US20230140691A1, “OPTICALLY CLEAR, IN-SITU FORMING BIODEGRADABLE NANO-CARRIERS FOR OCULAR THERAPY, AND METHODS USING SAME” (Rowan University, priority 2017, published 2023).

Test: In vitro drug release from PLGA-PEG-PLGA hydrogel in microfluidic devices at physiological flow rate
Assay type: physicochemical
Conditions: 15 μg HA loaded; for release rate of hyaluronic acid from hydrogel: 35° C.; for amount of HA released: in 10 days
Description: The final volume of the hydrogel solution with the compound of interest was constrained to 100 μL because of the anatomical space in the lens capsule. Physiological flow rate (2.4 μl/min) was achieved using microfluidic devices. The devices resemble the anatomical dimensions of both the anterior and posterior chamber of the human eye, as well as the physiological dynamics of the aqueous humor flow. All of the release studies were conducted at 35° C. • a. Dexamethasone (Hydrophobic): 100 μL of PLGA-PEG-PLGA hydrogel solution at 25 (w/v) % was mixed with 100 μg of dexamethasone. The collected samples were analyzed via HPLC. • b. […] The collected samples were analyzed via fluoresce spectroscopy at an excitation, filter, and emission wavelengths (nm) of 483, 515 524, respectively • c. Nucleic acid conjugates (Hydrophilic): 62 μL of nucleic acid conjugates in PBS solution (31 μg) were mixed with 38 μL of hydrogel solution at a concentration of 25 (w/v) %. Because the nucleic acid conjugates were already dissolved in PBS, the hydrogel solution was diluted down to 14 (w/v) %. The collected samples were analyzed via fluorescence spectroscopy at an excitation, filter, and emission wavelengths (nm) of 642, 665, and 670, respectively. • d. Hyaluronic acid (Hydrophilic): 30 μL of hyaluronic acid (HA, 800 KDa) stock solution at a concentration of 0.5 mg/mL in PBS (15 ug of HA) was mixed with 56 μL of hydrogel solution at a concentration of 25 (w/v) %. In addition, 14 μL of PBS were added to diluted the hydrogel solution down to 14 (w/v) %. Samples containing PLL were prepared by adding to the already mentioned composition 10 mg of PLL (10 (w/v) % PLL). The collected samples were analyzed via fluorescence spectroscopy at an excitation, filter, and emission wavelengths (nm) of 483, 495, 518, respectively.

[1] = systems modified with 10 (w/v) % PLL

Hyaluronic acid
release rate of hyaluronic acid from hydrogel (control systems, no PLL): 0.087 ± 0.044 µg/h
amount of HA released (control systems, no PLL): 13 µg
release rate of hyaluronic acid from hydrogel [1]: 0.055±0.026
amount of HA released [1]: 11 µg
